Data published in ChEMBL document CHEMBL1127671, “Molecular modeling studies of aldose reductase inhibitors” (J Med Chem, 1994).

Target: Aldo-keto reductase family 1 member B1 (Rattus norvegicus, UniProt P07943)
Experiment: Inhibitory activity against purified rat lens aldose reductase (RLAR)

SMILES | IC50
O=C(O)C=C1c2cc(F)ccc2-c2ccc(F)cc21 | 16 µM
O=C(O)/C=C1\c2ccccc2-c2ccc(F)cc21 | 56 µM
O=C(O)C1c2ccccc2-c2ccccc21 | 182 µM
c1ccc2c(c1)-c1ccccc1C2c1nnn[nH]1 | 217 µM
CC(C)c1cccc2c1OC(C(C)C)C(=S)N2CC(=O)O (stereo not drawn) | 0.13 µM
O=C(O)CC1c2cc(F)ccc2-c2ccc(F)cc21 | 0.43 µM
O=C(O)Cn1c(=O)n(Cc2ccc(Br)cc2F)c(=O)c2ccc(Cl)cc21 [ZENARESTAT] | 0.0044 µM
O=C(O)C1CC12c1ccccc1-c1ccccc12 (stereo not drawn) | 11.7 µM
O=C1NC(=O)C2(N1)c1ccccc1-c1ccccc12 | 3.5 µM
c1ccc2c(c1)-c1ccccc1C2Cc1nnn[nH]1 | 1490 µM
O=C(O)CC1c2ccccc2-c2ccccc21 | 8.9 µM
O=C(O)Cc1nn(Cc2ccc(Br)cc2F)c(=O)c2ccccc12 [PONALRESTAT] | 0.016 µM
O=C(O)CC1c2ccccc2-c2ccc(F)cc21 (stereo not drawn) | 0.85 µM
